Laboratory results: patent US7705016B2, “Regulation of food intake by modulation of long-chain fatty acyl-CoA levels in the hypothalamus” (Albert Einstein College of Medicine of Yeshiva University, priority 2003, dated 2010)
Entries after “also recorded” stand apart in the source; their conditions may differ.

Target: T1, hypothalamic CPT1 (Rattus norvegicus, UniProt P32198)
T1 sequence (P32198 1-773): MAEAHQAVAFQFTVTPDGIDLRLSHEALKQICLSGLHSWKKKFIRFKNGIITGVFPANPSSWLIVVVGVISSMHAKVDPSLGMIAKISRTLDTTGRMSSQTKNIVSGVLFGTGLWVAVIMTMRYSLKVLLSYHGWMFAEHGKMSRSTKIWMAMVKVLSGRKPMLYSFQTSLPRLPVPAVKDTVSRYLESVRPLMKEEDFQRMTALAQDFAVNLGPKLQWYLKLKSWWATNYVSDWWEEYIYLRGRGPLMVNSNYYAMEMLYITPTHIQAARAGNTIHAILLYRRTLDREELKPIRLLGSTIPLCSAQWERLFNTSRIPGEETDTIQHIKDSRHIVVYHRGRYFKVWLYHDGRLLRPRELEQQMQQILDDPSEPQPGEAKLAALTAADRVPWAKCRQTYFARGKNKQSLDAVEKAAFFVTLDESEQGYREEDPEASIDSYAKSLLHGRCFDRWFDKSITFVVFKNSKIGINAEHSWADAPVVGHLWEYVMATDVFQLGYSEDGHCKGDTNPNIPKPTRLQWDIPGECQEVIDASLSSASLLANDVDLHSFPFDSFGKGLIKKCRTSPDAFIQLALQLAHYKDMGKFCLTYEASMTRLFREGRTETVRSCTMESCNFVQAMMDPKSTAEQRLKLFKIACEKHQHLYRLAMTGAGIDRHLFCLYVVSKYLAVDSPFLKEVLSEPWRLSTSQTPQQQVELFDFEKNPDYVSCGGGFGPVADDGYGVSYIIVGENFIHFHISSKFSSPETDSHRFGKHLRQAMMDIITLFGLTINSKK
Assay: Food intake after ICV bolus of CPT1 antagonists
Format: in vivo
Design: CPT1 activity was measured in the particulate fraction of protein extracts from animals treated with ICV control injections; from tissue; host or cells: hypothalamus (arcuate nucleus) of male Sprague-Dawley rats, in vivo or ex vivo
Conditions: for decrease in daily food intake: 24-48 h after single ICV administration, ST 1326 high dose; for change in food intake from baseline: ST 1326 high dose (25 pmoles); for effect on food intake / feeding behavior: single ICV injection
Method: Hypothalamic inhibition of CPT1 decreases food intake. First we examined whether central administration of molecular and pharmacological antagonists of CPT1 modulates feeding behavior in conscious rats (FIG. 3). […] Food intake was monitored in metabolic cages before and up to 72 h after the ICV injections (Obici et al., 2002a). […] The marked effect of ICV CPT1L-Ribo on food intake was significant when compared with either control vector or with an unrelated control ribozyme (FIG. 3c). […] The anorectic effect of central CPT1 inhibition lasted for at least 48 h following a single ICV administration. These decreases in food intake were significant compared with both baseline and vehicle/control (FIG. 3a-e). The changes from baseline induced by CPT1 inhibition were statistically significant at 24 h (−17.6±2.0 g and −12.4±3.9 g), and 48 h (−13.4±1.8 g and −7.8±3.8 g) following ICV administration of CP1L-Ribo and high dose ST 1326, respectively (FIGS. 3b and e). This represented a ˜50% decrease in daily food intake, which returned toward baseline values by 72 h.
Animal preparation for in vivo experiments. We studied ninety-three 10-week old male Sprague-Dawley rats (Charles River Breeding Laboratories, Wilmington, Mass.). Rats were housed in individual cages and subjected to a standard light-dark cycle. Three weeks prior to the in vivo studies, we placed a chronic catheter in the third cerebral ventricle by stereotaxic surgery (Obici et al., 2002a; Obici et al., 2001; Liu et al., 1998). One week before the pancreatic-insulin clamp protocols, we placed additional catheters in the right internal jugular and left carotid artery (Obici et al., 2001; Liu et al., 1998). All ICV solutions were dissolved in artificial cerebral spinal fluid (aCSF). Food intake was monitored daily.
Effect of central inhibition of CPT1 and food intake. We examined the effects of ICV CPT1L-Ribo and ST 1326 on food intake. Three-hours before the start of the dark cycle, CPT1L-Ribo or vector control, ST 1326 or ST 1340 was injected as a bolus via indwelling catheters implanted in the third cerebral ventricle. In the feeding studies, rats received a single bolus injection of 25 pmoles of ST1340 or two different doses (5 and 25 pmoles) of ST1326. Rats were adapted to the metabolic cages and their daily food intake had been constant (changes <10%) for a minimum of three consecutive days preceding the ICV injections. Food intake was continuously monitored for the following 72 h.

[1] = 24 h after single ICV administration
[2] = 48 h after single ICV administration

Compound | inhibition of daily food intake (5 pmoles single ICV injection) | food intake on day 3 compared to control group (25 pmoles (high dose) single ICV injection, day 3) | inhibition of daily food intake (25 pmoles single ICV injection) | decrease in daily food intake [%] | change in food intake from baseline [1] [g] | change in food intake from baseline [2] [g] | effect on food intake / feeding behavior | average food intake (first night following ICV administration) [gr./day]
CCCCCCCCCCCCCCNC(=O)N[C@H](CC(=O)[O-])C[N+](C)(C)C [ST1326, (R)-N-(tetradecylcarbamoyl)-aminocarnitine] | statistically significant on day 1 and 2 | significantly lowered food intake | statistically significant on day 1 and 2 | ~50 | -12.4 ± 3.9 | -7.8 ± 3.8 | markedly inhibited food intake | –
CPT1L-Ribo: plasmid (pTarget, CMV promoter) expressing a hammerhead ribozyme that specifically cleaves rat CPT1L mRNA, complexed to PEI for ICV injection (DNA CUGUACCAAAGAGCUGUAGAGUCCGUGAGGACGAAACGCCGCUCACAAUG) | – | – | – | ~50 | -17.6 ± 2.0 | -13.4 ± 1.8 | significantly suppressed from day 1 to day 3; also recorded: rapid onset of anorexia | 13.0±1.9
